In patent US12185723B2, “Herbicidally active 3-phenylisoxazoline-5-carboxamides of s-containing cyclopentenylcarboxylic esters” (Bayer Aktiengesellschaft, priority 2019, dated 2025):

How the values were obtained:
Assay type in all cases: in vivo
Veronica persica = experiment: Post-emergence herbicidal action against VERPE
Experimental: (§1) Post-Emergence Herbicidal Action Against Harmful Plants and Crop Plant Compatibility Seeds of monocotyledonous and dicotyledonous weeds and crop plants are placed in sandy loam in plastic or wood-fibre pots, covered with soil and cultivated in a greenhouse under controlled growth conditions. 2 to 3 weeks after sowing, the test plants are treated at the one-leaf stage. The compounds of the invention, formulated in the form of wettable powders (WP) or as emulsion concentrates (EC), are then sprayed onto the green parts of the plants as aqueous suspension or emulsion with addition of 0.5% additive at a water application rate of 600 l/ha (converted). After the test plants have been kept in the greenhouse under optimum growth conditions for about 3 weeks, the activity of the preparations is rated visually in comparison to untreated controls. For example, 100% activity=the plants have died, 0% activity=like control plants. [table]

Amaranthus retroflexus = experiment: Post-emergence herbicidal action against AMARE; conditions: 20 g a.i./ha
Experimental: as §1

DIGSA = experiment: Post-emergence herbicidal action against DIGSA; conditions: visual rating about 3 weeks after treatment
Experimental: as §1, with “plants.” for “plants. [table]”

Setaria viridis = experiment: Post-emergence herbicidal action against SETVI; conditions: visual rating about 3 weeks after treatment
Experimental: as §1

Alopecurus myosuroides = experiment: Post-emergence herbicidal action against ALOMY; conditions: visual rating about 3 weeks after treatment
Experimental: as §1

Echinochloa crus-galli = experiment: Post-emergence herbicidal action against ECHCG; conditions: visual rating about 3 weeks after treatment
Experimental: as §1

Matricaria inodora = experiment: Post-emergence herbicidal action against MATIN; conditions: 20 g a.i./ha
Experimental: as §1

Avena fatua = experiment: Post-emergence herbicidal action against AVEFA; conditions: visual rating about 3 weeks after treatment
Experimental: as §1

Pharbitis purpurea = experiment: Post-emergence herbicidal action against PHBPU; conditions: 20 g a.i./ha
Experimental: as §1

Abutilon theophrasti = experiment: Post-emergence herbicidal action against ABUTH; conditions: 20 g a.i./ha, visual rating about 3 weeks after treatment
Experimental: as §1

Polygonum convolvulus = experiment: Post-emergence herbicidal action against POLCO; conditions: 20 g a.i./ha
Experimental: as §1

Lolium rigidum = experiment: Post-emergence herbicidal action against LOLRI; conditions: visual rating about 3 weeks after treatment
Experimental: as §1

Stellaria media = experiment: Post-emergence herbicidal action against STEME; conditions: 80 g a.i./ha
Experimental: as §1

Hordeum murinum = experiment: Post-emergence herbicidal action against HORMU
Experimental: as §1

Row | Compound | Herbicidal action against [%] VERPE (Veronica persica; 20 g a.i./ha) | Herbicidal action against [%] AMARE (Amaranthus retroflexus) | Herbicidal action against [%] DIGSA (DIGSA; 20 g a.i./ha) | Herbicidal action against [%] SETVI (Setaria viridis; 20 g a.i./ha) | Herbicidal action against [%] ALOMY (Alopecurus myosuroides; 20 g a.i./ha) | Herbicidal action against [%] ECHCG (Echinochloa crus-galli; 20 g a.i./ha) | Herbicidal action against [%] MATIN (Matricaria inodora) | Herbicidal action against [%] AVEFA (Avena fatua; 20 g a.i./ha) | Herbicidal action against [%] PHBPU (Pharbitis purpurea) | Herbicidal action against [%] ABUTH (Abutilon theophrasti) | Herbicidal action against [%] POLCO (Polygonum convolvulus) | Herbicidal action against [%] LOLRI (Lolium rigidum; 20 g a.i./ha) | other results
1 | C=CCSCCOC(=O)C1C=CC(NC(=O)C2(C)CC(c3cc(F)cc(F)c3)=NO2)C1 (stereo not drawn) [Example I-11] | 90% | 90% | 90% | 90% | 100% | 90% | 80% | 90% | 80% | 90% | 90% | 100% | 
2 | CC(C)SCCOC(=O)C1C=CC(NC(=O)C2(C)CC(c3cc(F)cc(F)c3)=NO2)C1 (stereo not drawn) [Example I-10] | 90% | 90% | 90% | 90% | 100% | 90% | 80% | 90% | 80% | 90% | 90% | 100% | 
3 | CC1(C(=O)NC2C=CC(C(=O)OCCSCc3ccccc3)C2)CC(c2cc(F)cc(F)c2)=NO1 (stereo not drawn) [Example I-07] | 90% | 90% | 90% | 90% | 90% | 90% | 80% | 90% | 80% | 80% | 90% | 90% | 
4 | CSCCOC(=O)C1C=CC(NC(=O)C2(CCl)CC(c3cc(C)cc(F)c3)=NO2)C1 (stereo not drawn) [Example I-57] |  |  |  |  | 80% |  | 80% |  |  |  |  |  | 
5 | CC1(C(=O)NC2C=CC(C(=O)OCCSCC(F)(F)F)C2)CC(c2cc(F)cc(F)c2)=NO1 (stereo not drawn) [Example I-12] |  |  | 80% | 80% | 90% | 80% | 80% |  | 80% |  | 80% | 80% | 
6 | COC1(C(=O)NC2C=CC(C(=O)OCCSC(C)C)C2)CC(c2cc(F)cc(F)c2)=NO1 (stereo not drawn) [Example I-25] | 80% | 80% | 90% | 90% | 90% | 80% |  | 90% | 80% | 80% | 80% | 90% | 
7 | C=CC1(C(=O)NC2C=CC(C(=O)OCCSC)C2)CC(c2cc(F)cc(C#N)c2)=NO1 (stereo not drawn) [Example I-39] | 90% | 80% | 90% | 90% | 90% | 90% |  | 90% | 80% | 80% | 80% | 90% | 
8 | CSCCOC(=O)C1C=CC(NC(=O)C2(C)CC(c3cccc(C#N)c3)=NO2)C1 (stereo not drawn) [Example I-41] |  |  |  | 80% | 80% |  |  | 90% |  |  |  |  | Herbicidal action against [%] VERPE (Veronica persica; 80 g a.i./ha): 80%; Herbicidal action against [%] DIGSA (DIGSA; 80 g a.i./ha): 80%; Herbicidal action against [%] SETVI (Setaria viridis; 80 g a.i./ha): 80%; Herbicidal action against [%] STEME (Stellaria media): 80%; Herbicidal action against [%] HORMU (Hordeum murinum; 20 g a.i./ha): 80%; Herbicidal action against [%] HORMU (Hordeum murinum; 80 g a.i./ha): 90%; Herbicidal action against [%] AVEFA (Avena fatua; 80 g a.i./ha): 100%; Herbicidal action against [%] LOLRI (Lolium rigidum; 80 g a.i./ha): 80%
9 | COC1(C(=O)NC2C=CC(C(=O)OCCSC)C2)CC(c2cc(F)cc(F)c2)=NO1 (stereo not drawn) [Example I-20] | 80% | 80% | 80% | 80% | 90% | 90% | 80% | 90% | 80% | 80% |  | 90% | 
10 | C=CC1(C(=O)NC2C=CC(C(=O)OCCSC)C2)CC(c2cc(Cl)cc(Cl)c2)=NO1 (stereo not drawn) [Example I-55] | 90% | 90% | 80% | 90% | 100% |  | 80% | 80% | 80% | 80% | 80% |  | 
11 | CC1(C(=O)NC2C=CC(C(=O)OCCSC(F)(F)F)C2)CC(c2cc(F)cc(F)c2)=NO1 (stereo not drawn) [Example I-13] | 80% |  | 80% | 80% | 90% |  | 80% | 90% |  | 80% |  | 80% | 
12 | C[S+]([O-])CCOC(=O)C1C=CC(NC(=O)C2(C)CC(c3cc(F)cc(F)c3)=NO2)C1 (mixture of isomers) [Example I-66] |  | 80% |  |  | 90% | 80% | 80% | 80% | 80% |  | 80% | 80% | 
13 | CCS(=O)(=O)CCOC(=O)C1C=CC(NC(=O)C2(C)CC(c3cc(F)cc(F)c3)=NO2)C1 (stereo not drawn) [Example I-01] | 80% | 90% | 90% | 90% | 90% | 90% |  | 90% | 80% | 90% | 90% | 100% | 
14 | CSCCOC(=O)C1C=CC(NC(=O)C2(CF)CC(c3cc(F)cc(C#N)c3)=NO2)C1 (stereo not drawn) [Example I-65] | 80% | 80% |  |  | 90% | 80% | 80% | 80% |  | 80% | 90% | 80% | 
15 | CC1(C(=O)NC2C=CC(C(=O)OCCSc3ccccc3)C2)CC(c2cc(F)cc(F)c2)=NO1 (stereo not drawn) [Example I-16] | 80% |  | 80% | 80% | 90% | 80% | 80% | 90% | 80% | 80% | 80% |  | 
16 | C=CC1(C(=O)NC2C=CC(C(=O)OCCSC)C2)CC(c2cc(C)cc(C)c2)=NO1 (mixture of isomers) [Example I-45] | 80% |  |  |  |  |  |  |  |  |  |  |  | Herbicidal action against [%] VERPE (Veronica persica; 80 g a.i./ha): 80%; Herbicidal action against [%] SETVI (Setaria viridis; 80 g a.i./ha): 80%; Herbicidal action against [%] ALOMY (Alopecurus myosuroides; 80 g a.i./ha): 90%; Herbicidal action against [%] STEME (Stellaria media): 90%; Herbicidal action against [%] HORMU (Hordeum murinum; 20 g a.i./ha): 80%; Herbicidal action against [%] HORMU (Hordeum murinum; 80 g a.i./ha): 80%; Herbicidal action against [%] ECHCG (Echinochloa crus-galli; 80 g a.i./ha): 80%; Herbicidal action against [%] AVEFA (Avena fatua; 80 g a.i./ha): 80%; Herbicidal action against [%] LOLRI (Lolium rigidum; 80 g a.i./ha): 90%
